In ChEMBL document CHEMBL5241112, “Insights into the recent progress in the medicinal chemistry of pyranopyrimidine analogs” (RSC Med Chem, 2022):
pIC50: −log10 of the molar value. Values after ≈ are worked out from the molar mass of the structure shown.

Columns and labels:
[1] = test system: MCF7; test: cells; type: functional, cell-based; details: Homo sapiens, MCF7, 96 h
[2] = molecular target: Poly [ADP-ribose] polymerase 1 (Homo sapiens, UniProt P09874); test: Inhibition of PARP1 (unknown origin) incubated for 1 hrs by colorimetric analysis
[3] = test system: HCT-116; test: Anticancer activity against human HCT-116 cells assessed as reduction in cell viability incubated for 96 hrs by MTT assay; type: functional, cell-based; details: HCT-116, 96 h
[4] = test system: A549; test: Anticancer activity against human A549 cells assessed as reduction in cell viability incubated for 24 hrs by MTT assay; type: functional, cell-based; details: A549, 24 h
[5] = test system: HepG2; test: Anticancer activity against human HepG2 cells assessed as reduction in cell viability incubated for 24 hrs by MTT assay; type: functional, cell-based; details: HepG2, 24 h
[6] = molecular target: NAD-dependent protein deacetylase sirtuin-1 (Homo sapiens, UniProt Q96EB6); test: Inhibition of recombinant human SIRT1 expressed in Escherichia coli using Fluor de Lys-SIRT1/2 substrate in presence of NAD+ by fluorescence microplate reader analysis
[7] = test system: DLD-1; test: Anticancer activity against human DLD-1 cells assessed as cell growth inhibition incubated for 24 hrs; type: functional, cell-based; details: DLD-1, 24 h
[8] = test system: MCF7; test: Anticancer activity against human MCF7 cells assessed as cell growth inhibition incubated for 24 hrs; type: functional, cell-based; details: MCF7, 24 h
[9] = test system: NUGC; test: Anticancer activity against human NUGC cells assessed as cell growth inhibition incubated for 24 hrs; type: functional, cell-based
[10] = test system: HA22T cell line; test: Anticancer activity against human HA22T cells assessed as cell growth inhibition incubated for 24 hrs; type: functional, cell-based
[11] = test system: HepG2; test: Anticancer activity against human HepG2 cells assessed as cell growth inhibition incubated for 24 hrs; type: functional, cell-based; details: HepG2, 24 h
[12] = test system: HONE1 cell line; test: Anticancer activity against human HONE1 cell line assessed as cell growth inhibition incubated for 24 hrs; type: functional, cell-based; details: HONE1, 24 h
[13] = Cytotoxicity against human WI-38 cells assessed as cell growth inhibition incubated for 24 hrs; type: toxicity, cell-based
[14] = test system: WI-38; test: Cytotoxicity against human WI-38 cells assessed as lethality incubated for 24 hrs; type: toxicity, cell-based; details: wi-38, 24 h
[15] = test system: U-937; test: Induction of apoptosis in human U-937 cells assessed as total apoptotic cells at 50 uM incubated for 50 hrs by FACS analysis; type: functional
[16] = test system: SK-OV-3; test: Anticancer activity against human SK-OV-3 cells assessed as reduction in cell viability incubated for 24 hrs by MTT assay; type: functional, cell-based; details: SK-OV-3, 24 h
[17] = test system: MCF7; test: Anticancer activity against human MCF7 cells assessed as reduction in cell viability incubated for 24 hrs by MTT assay; type: functional, cell-based; details: MCF7, 24 h
[18] = test system: Caco-2; test: Anticancer activity against human Caco-2 cells assessed as reduction in cell viability by MTT assay; type: functional, cell-based
[19] = test system: Candida albicans; test: Antifungal activity against Candida albicans assessed as inhibition of fungal growth at MIC by microdilution method; type: functional
[20] = test system: Candida albicans; test: Antifungal activity against Candida albicans assessed as inhibition of fungal growth by microdilution method; type: functional
[21] = test system: Enterococcus faecalis; test: Antibacterial activity against […] assessed as inhibition of bacterial growth by microdilution method; type: functional
[22] = Cytotoxicity against African green monkey Vero cells assessed as reduction in cell viability by MTT assay; type: toxicity, cell-based; details: African green monkey (Chlorocebus sabaeus)
[23] = test system: Escherichia coli; test: Antibacterial activity against Escherichia coli assessed as inhibition of bacterial growth by microdilution method; type: functional
[24] = test system: Enterococcus faecalis; test: Antibacterial activity against […] assessed as minimum bactericidal concentration by microdilution method; type: functional
[25] = test system: Bacillus pumilus; test: Antibacterial activity against Bacillus pumilus assessed as minimum bactericidal concentration by microdilution method; type: functional
[26] = test system: Enterobacter cloacae; test: Antibacterial activity against Enterobacter cloacae assessed as minimum bactericidal concentration by microdilution method; type: functional
[27] = test system: Bacillus pumilus; test: Antibacterial activity against Bacillus pumilus assessed as inhibition of bacterial growth at MIC by microdilution method; type: functional
[28] = test system: Bacillus pumilus; test: Antibacterial activity against Bacillus pumilus assessed as inhibition of bacterial growth by microdilution method; type: functional
[29] = test system: Enterobacter cloacae; test: Antibacterial activity against Enterobacter cloacae assessed as inhibition of bacterial growth by microdilution method; type: functional
[30] = test system: Candida albicans; test: […] activity against Candida albicans assessed as […] by microdilution method; type: functional
[31] = test system: Aspergillus niger; test: […] activity against Aspergillus niger assessed as […] by microdilution method; type: functional
[32] = test system: Enterococcus faecalis; test: Antibacterial activity against […] assessed as inhibition of bacterial growth at MIC by microdilution method; type: functional
[33] = test system: Aspergillus niger; test: Antifungal activity against Aspergillus niger assessed as inhibition of fungal growth at MIC by microdilution method; type: functional
[34] = test system: Aspergillus niger; test: Antifungal activity against Aspergillus niger assessed as inhibition of fungal growth by microdilution method; type: functional
[35] = test system: Enterobacter cloacae; test: Antibacterial activity against Enterobacter cloacae assessed as inhibition of bacterial growth at MIC by microdilution method; type: functional

Chain of Poly [ADP-ribose] polymerase 1 (P09874 whole entry): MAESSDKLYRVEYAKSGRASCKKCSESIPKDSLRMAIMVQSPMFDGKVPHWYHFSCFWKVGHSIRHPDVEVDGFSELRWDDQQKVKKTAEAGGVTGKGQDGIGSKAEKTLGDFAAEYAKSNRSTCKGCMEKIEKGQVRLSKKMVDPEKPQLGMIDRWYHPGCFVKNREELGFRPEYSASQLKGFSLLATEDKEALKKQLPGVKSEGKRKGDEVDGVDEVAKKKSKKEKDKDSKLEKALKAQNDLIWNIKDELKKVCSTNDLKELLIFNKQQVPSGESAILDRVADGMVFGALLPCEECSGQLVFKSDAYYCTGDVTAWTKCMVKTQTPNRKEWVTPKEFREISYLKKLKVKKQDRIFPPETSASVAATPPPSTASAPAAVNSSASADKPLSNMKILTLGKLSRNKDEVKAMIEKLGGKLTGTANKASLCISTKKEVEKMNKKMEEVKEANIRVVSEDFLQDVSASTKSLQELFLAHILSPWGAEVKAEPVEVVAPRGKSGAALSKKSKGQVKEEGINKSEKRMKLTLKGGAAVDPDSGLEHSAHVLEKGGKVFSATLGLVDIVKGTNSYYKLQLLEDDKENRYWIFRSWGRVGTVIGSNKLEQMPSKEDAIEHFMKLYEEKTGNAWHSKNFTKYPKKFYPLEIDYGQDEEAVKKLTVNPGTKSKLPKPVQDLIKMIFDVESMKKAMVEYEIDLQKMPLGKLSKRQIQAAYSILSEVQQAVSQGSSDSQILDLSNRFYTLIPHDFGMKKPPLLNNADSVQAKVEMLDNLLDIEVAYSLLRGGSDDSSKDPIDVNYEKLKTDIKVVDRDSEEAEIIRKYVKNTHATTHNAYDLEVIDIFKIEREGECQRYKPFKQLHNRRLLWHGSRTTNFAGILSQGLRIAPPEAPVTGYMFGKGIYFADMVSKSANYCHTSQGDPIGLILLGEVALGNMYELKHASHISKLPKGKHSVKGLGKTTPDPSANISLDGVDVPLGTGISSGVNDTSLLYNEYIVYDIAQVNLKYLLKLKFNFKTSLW
Chain of NAD-dependent protein deacetylase sirtuin-1 (Q96EB6 whole entry): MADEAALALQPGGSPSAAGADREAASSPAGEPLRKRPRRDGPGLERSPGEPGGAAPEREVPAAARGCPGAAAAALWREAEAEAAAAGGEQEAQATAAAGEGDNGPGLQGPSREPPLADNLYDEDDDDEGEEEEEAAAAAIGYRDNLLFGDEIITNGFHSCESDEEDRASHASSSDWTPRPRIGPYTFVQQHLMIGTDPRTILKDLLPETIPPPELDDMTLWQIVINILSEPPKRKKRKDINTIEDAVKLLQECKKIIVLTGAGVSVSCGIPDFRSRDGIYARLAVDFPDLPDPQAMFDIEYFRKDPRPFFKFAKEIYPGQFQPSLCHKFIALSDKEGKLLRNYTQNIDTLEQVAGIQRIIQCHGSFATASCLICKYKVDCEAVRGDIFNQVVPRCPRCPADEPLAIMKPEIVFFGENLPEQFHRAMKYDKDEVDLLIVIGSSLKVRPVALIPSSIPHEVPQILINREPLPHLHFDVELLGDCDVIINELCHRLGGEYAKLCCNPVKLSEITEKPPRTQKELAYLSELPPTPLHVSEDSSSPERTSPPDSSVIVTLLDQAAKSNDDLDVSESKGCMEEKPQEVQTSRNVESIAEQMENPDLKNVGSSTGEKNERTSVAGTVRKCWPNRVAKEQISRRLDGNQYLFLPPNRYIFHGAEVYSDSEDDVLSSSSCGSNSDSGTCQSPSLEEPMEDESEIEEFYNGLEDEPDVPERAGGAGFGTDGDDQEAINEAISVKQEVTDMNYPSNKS

Molecule `Nc1cc(-c2ccc([N+](=O)[O-])cc2)nc2c1C(c1cccs1)c1c([nH]c(=O)[nH]c1=O)O2` (stereo unspecified) has a pIC50 [1] of 6.18, a pIC50 [2] of 7.80 and a pIC50 [3] of 5.56.
Molecule `CCCCCCCCn1cc(Cn2c(C)nc3c(c2=O)C(c2ccccc2)C(C(=O)OCC)=C(C)O3)nn1` (stereo unspecified) has a pIC50 [4] of 5.44 and a pIC50 [5] of 4.16.
Work on `O=C1N=C2Oc3ccccc3CC2C(=O)N1c1ccccc1` (stereo unspecified) yielded a pIC50 [6] of 5.38.
In the case of `N#CC1=C(N)C2C(=NC(NN)=NC2c2ccc(Cl)cc2)OC1=O` (stereo unspecified), the pIC50 [7] was 6.22, the pIC50 [8] was 6.46 and the pIC50 [9] was 6.48. The pIC50 [10] was 6.55, the pIC50 [11] was 6.58 and the pIC50 [12] was 6.70.
For `N#CC1=C(N)C2C(=NC(NNc3ccccc3)=NC2c2ccc(Cl)cc2)OC1=O` (stereo unspecified), the pIC50 [7] was 6.84, the pIC50 [8] was 6.55 and the IC50 at 24 h [13] was 222 nM. The LC50 [14] was 18.38 µg/mL (≈ 45.2 µM), the pIC50 [9] was 7.26 and the pIC50 [11] was 6.28. The pIC50 [12] was 6.27.
`O=c1nc2oc3ccc4ccccc4c3cc-2c(=O)n1-c1ccccc1` gave an Activity [15] of 28.4%.
In the case of `CCOC(=O)C1=C(C)Oc2nc(C)n(Cc3cn(-c4ccc([N+](=O)[O-])cc4)nn3)c(=O)c2C1c1ccccc1` (stereo unspecified), the pIC50 [16] was 4.02, the pIC50 [4] was 6.16 and the pIC50 [17] was 4.15.
In the case of `COc1ccc(N2C(=O)C3C(c4ccccc4)C(C#N)=C(N)OC3N(c3ccc(OC)cc3)C2=S)cc1` (stereo unspecified), the IC50 [18] was 65.9 µg/mL (≈ 129 µM), the “inhibition (INH)” value [19] was 85.5% and the MIC [20] was 31.2 µg/mL. The MIC [21] was 7.81 µg/mL (≈ 15.2 µM), the IC50 [22] was 138 µg/mL (≈ 269 µM) and the MIC [23] was 3.91 µg/mL (≈ 7.63 µM). For the same molecule, the MBC [24] was 31.3 µg/mL (≈ 61.1 µM), the MBC [25] was 62.5 µg/mL (≈ 122 µM) and the MBC [26] was 15.6 µg/mL (≈ 30.4 µM). For the same molecule, the “inhibition (INH)” value [27] was 51.3%, the MIC [28] was 15.6 µg/mL (≈ 30.4 µM) and the MIC [29] was 31.2 µg/mL (≈ 60.9 µM). For the same molecule, the MBC [30] was 125 µg/mL (≈ 244 µM), the MBC [31] was 125 µg/mL (≈ 244 µM) and the “inhibition (INH)” value [32] was 78.6%. The “inhibition (INH)” value [33] was 88.3%, the MIC [34] was 62.5 µg/mL and the “inhibition (INH)” value [35] was 50.5%.
